# From PubChem BioAssay AID1918935 (Molecular Pharmacology Branch, DTP, NCI, 2023)
# Several values for one entry are separate records, joined by “and”; a condition that tells them apart may be missing. Equal entries are not always repeated.
# Tested on: 324938-238-R-J1-PDC complex spheroid viability
# Assay: Anticancer human tumor 324938-238-R-J1-PDC patient-derived bladder carcinoma cell line growth inhibition
# Settings: for viability, T/C: stronger effect = lower value
# Procedure, shortened: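 Complex spheroids of tumor cells with HUVEC and human MSCs, exposed to iadademstat combined with other agents. Each agent tested in half-log steps from near clinical Cmax (else 10 microM top), DMSO ≤0.25%.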
# [1] = curve of first compound, second compound 0.1 µM
# [2] = curve of first compound, second compound 0.316 µM
# [3] = curve of first compound, second compound 1 µM
# [4] = curve of first compound, second compound 3.16 µM
# [5] = curve of first compound, second compound 10 µM
# [6] = second compound 0.1 µM, first compound 0.00949 µM
# [7] = second compound 0.1 µM, first compound 0.03 µM
# [8] = second compound 0.1 µM, first compound 0.0949 µM
# [9] = second compound 0.1 µM, first compound 0.3 µM
# [10] = second compound 0.1 µM, first compound 0.949 µM
# [11] = second compound 0.1 µM, first compound 3 µM
# [12] = second compound 0.316 µM, first compound 0.00949 µM
# [13] = second compound 0.316 µM, first compound 0.03 µM
# [14] = second compound 0.316 µM, first compound 0.0949 µM
# [15] = second compound 0.316 µM, first compound 0.3 µM
# [16] = second compound 0.316 µM, first compound 0.949 µM
# [17] = second compound 0.316 µM, first compound 3 µM
# [18] = second compound 1 µM, first compound 0.00949 µM
# [19] = second compound 1 µM, first compound 0.03 µM
# [20] = second compound 1 µM, first compound 0.0949 µM
# [21] = second compound 1 µM, first compound 0.3 µM
# [22] = second compound 1 µM, first compound 0.949 µM
# [23] = second compound 1 µM, first compound 3 µM
# [24] = second compound 3.16 µM, first compound 0.00949 µM
# [25] = second compound 3.16 µM, first compound 0.03 µM
# [26] = second compound 3.16 µM, first compound 0.0949 µM
# [27] = second compound 3.16 µM, first compound 0.3 µM
# [28] = second compound 3.16 µM, first compound 0.949 µM
# [29] = second compound 3.16 µM, first compound 3 µM
# [30] = second compound 10 µM, first compound 0.00949 µM
# [31] = second compound 10 µM, first compound 0.03 µM
# [32] = second compound 10 µM, first compound 0.0949 µM
# [33] = second compound 10 µM, first compound 0.3 µM
# [34] = second compound 10 µM, first compound 0.949 µM
# [35] = second compound 10 µM, first compound 3 µM
# 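Also: spheroids also contain HUVEC and human MSCs and agents combined with iadademstat; spheroids exposed to agents for 7 days before readout.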
compound,measurement,setting,value
O=C(c1cc(Cc2n[nH]c(=O)c3ccccc23)ccc1F)N1CCN(C(=O)C2CC2)CC1 + NC1CC1c1ccc(-c2cccc(O)c2)cc1,IC50,[1],2150 nM
same,IC50,[2],1980 nM
same,IC50,[3],917 nM
same,IC50,[4],1500 nM
same,IC50,[5],1220 nM
same,"viability, T/C","second compound 0.1 µM, first compound 0.0316 µM",89.8%
same,"viability, T/C","second compound 0.1 µM, first compound 0.1 µM",80.6%
same,"viability, T/C","second compound 0.1 µM, first compound 0.316 µM",72.4%
same,"viability, T/C","second compound 0.1 µM, first compound 1 µM",61.4%
same,"viability, T/C","second compound 0.1 µM, first compound 3.16 µM",43.3%
same,"viability, T/C","second compound 0.1 µM, first compound 10 µM",33.9%
same,"viability, T/C","second compound 0.316 µM, first compound 0.0316 µM",87.8%
same,"viability, T/C","second compound 0.316 µM, first compound 0.1 µM",78.5%
same,"viability, T/C","second compound 0.316 µM, first compound 0.316 µM",77.1%
same,"viability, T/C","second compound 0.316 µM, first compound 1 µM",62.7%
same,"viability, T/C","second compound 0.316 µM, first compound 3.16 µM",40.4%
same,"viability, T/C","second compound 0.316 µM, first compound 10 µM",36.3%
same,"viability, T/C","second compound 1 µM, first compound 0.0316 µM",74.2%
same,"viability, T/C","second compound 1 µM, first compound 0.1 µM",74.2%
same,"viability, T/C","second compound 1 µM, first compound 0.316 µM",64.4%
same,"viability, T/C","second compound 1 µM, first compound 1 µM",48%
same,"viability, T/C","second compound 1 µM, first compound 3.16 µM",40.3%
same,"viability, T/C","second compound 1 µM, first compound 10 µM",34.1%
same,"viability, T/C","second compound 3.16 µM, first compound 0.0316 µM",68.2%
same,"viability, T/C","second compound 3.16 µM, first compound 0.1 µM",74%
same,"viability, T/C","second compound 3.16 µM, first compound 0.316 µM",77.7%
same,"viability, T/C","second compound 3.16 µM, first compound 1 µM",56%
same,"viability, T/C","second compound 3.16 µM, first compound 3.16 µM",41.3%
same,"viability, T/C","second compound 3.16 µM, first compound 10 µM",36.2%
same,"viability, T/C","second compound 10 µM, first compound 0.0316 µM",73.1%
same,"viability, T/C","second compound 10 µM, first compound 0.1 µM",66.7%
same,"viability, T/C","second compound 10 µM, first compound 0.316 µM",66.3%
same,"viability, T/C","second compound 10 µM, first compound 1 µM",49.9%
same,"viability, T/C","second compound 10 µM, first compound 3.16 µM",43.8%
same,"viability, T/C","second compound 10 µM, first compound 10 µM",38.2%
Nc1ccccc1NC(=O)c1ccc(CNC(=O)OCc2cccnc2)cc1 + NC1CCC(NC2CC2c2ccccc2)CC1,IC50,[1],412 nM
same,IC50,[2],390 nM
same,IC50,[3],465 nM
same,IC50,[4],363 nM
same,IC50,[5],375 nM
same,"viability, T/C",[6],92%
same,"viability, T/C",[7],81.6%
same,"viability, T/C",[8],68.5%
same,"viability, T/C",[9],54.4%
same,"viability, T/C",[10],39.9%
same,"viability, T/C",[11],17.2%
same,"viability, T/C",[12],84.3%
same,"viability, T/C",[13],88%
same,"viability, T/C",[14],67.6%
same,"viability, T/C",[15],55%
same,"viability, T/C",[16],34.6%
same,"viability, T/C",[17],12.9%
same,"viability, T/C",[18],79%
same,"viability, T/C",[19],76.2%
same,"viability, T/C",[20],73.3%
same,"viability, T/C",[21],54.5%
same,"viability, T/C",[22],39.2%
same,"viability, T/C",[23],14.9%
same,"viability, T/C",[24],81.5%
same,"viability, T/C",[25],72.4%
same,"viability, T/C",[26],62%
same,"viability, T/C",[27],54.9%
same,"viability, T/C",[28],37.9%
same,"viability, T/C",[29],16%
same,"viability, T/C",[30],76.8%
same,"viability, T/C",[31],68.9%
same,"viability, T/C",[32],68.2%
same,"viability, T/C",[33],50.5%
same,"viability, T/C",[34],37.8%
same,"viability, T/C",[35],12.4%
COc1cc(C2c3cc4c(cc3C(OC3OC5COC(C)OC5C(O)C3O)C3COC(=O)C23)OCO4)cc(OC)c1O (configuration not stated),"viability, T/C",compound 0.00949 µM,97.2% and 106%
same,"viability, T/C",compound 0.03 µM,84.8% and 76%
same,"viability, T/C",compound 0.0949 µM,34.7% and 35.1%
same,"viability, T/C",compound 0.3 µM,20.9% and 20.7%
same,"viability, T/C",compound 0.949 µM,19.2% and 17.7%
same,"viability, T/C",compound 3 µM,8.35% and 8.98%
same,IC50,curve of compound,67.5 nM and 63.9 nM
O=C(C=Cc1cccc(S(=O)(=O)Nc2ccccc2)c1)NO + NC1CC1c1ccc(-c2cccc(O)c2)cc1,IC50,[1],160 nM
same,IC50,[2],111 nM
same,IC50,[3],87.4 nM
same,IC50,[4],106 nM
same,IC50,[5],29.5 nM
same,"viability, T/C",[6],84.3%
same,"viability, T/C",[7],75.3%
same,"viability, T/C",[8],59.1%
same,"viability, T/C",[9],36.2%
same,"viability, T/C",[10],24.5%
same,"viability, T/C",[11],3.13%
same,"viability, T/C",[12],69%
same,"viability, T/C",[13],64.2%
same,"viability, T/C",[14],52.6%
same,"viability, T/C",[15],34.6%
same,"viability, T/C",[16],21.9%
same,"viability, T/C",[17],2.23%
same,"viability, T/C",[18],62.6%
same,"viability, T/C",[19],55.4%
same,"viability, T/C",[20],50.5%
same,"viability, T/C",[21],37.2%
same,"viability, T/C",[22],20.1%
same,"viability, T/C",[23],1.65%
same,"viability, T/C",[24],64.2%
same,"viability, T/C",[25],65.9%
same,"viability, T/C",[26],50%
same,"viability, T/C",[27],34.4%
same,"viability, T/C",[28],23.6%
same,"viability, T/C",[29],1.52%
same,"viability, T/C",[30],57.7%
same,"viability, T/C",[31],47.1%
same,"viability, T/C",[32],40.1%
same,"viability, T/C",[33],34.9%
same,"viability, T/C",[34],24.6%
same,"viability, T/C",[35],2.48%
NC1CCC(NC2CC2c2ccccc2)CC1 (configuration not stated),"viability, T/C",compound 0.1 µM,78.6% [middle of 25 runs]
same,"viability, T/C",compound 0.316 µM,86.7% and 75.8% and 76.6%
same,"viability, T/C",compound 1 µM,75.9% [middle of 25 runs]
same,"viability, T/C",compound 3.16 µM,73.6% [middle of 24 runs]
same,"viability, T/C",compound 10 µM,72.2% [middle of 23 runs]
same,IC50,"compound alone, run of 11/29/2021",> 10000 nM
NS(=O)(=O)OCC1CC(n2ccc3c(NC4CCc5ccccc54)ncnc32)CC1O (configuration not stated) + NC1CCC(NC2CC2c2ccccc2)CC1,IC50,[1],336 nM
same,IC50,[2],336 nM
same,IC50,[3],390 nM
same,IC50,[4],309 nM
same,IC50,[5],323 nM
same,"viability, T/C",[6],81.7%
same,"viability, T/C",[7],78.5%
same,"viability, T/C",[8],84.7%
same,"viability, T/C",[9],54.2%
same,"viability, T/C",[10],11.7%
same,"viability, T/C",[11],11.9%
same,"viability, T/C",[12],86.5%
same,"viability, T/C",[13],88.1%
same,"viability, T/C",[14],79.9%
same,"viability, T/C",[15],54.7%
same,"viability, T/C",[16],14.3%
same,"viability, T/C",[17],11.5%
same,"viability, T/C",[18],79.2%
same,"viability, T/C",[19],84.3%
same,"viability, T/C",[20],82.4%
same,"viability, T/C",[21],60.1%
same,"viability, T/C",[22],15.7%
same,"viability, T/C",[23],15.9%
same,"viability, T/C",[24],77.6%
same,"viability, T/C",[25],74.5%
same,"viability, T/C",[26],83.3%
same,"viability, T/C",[27],50.9%
same,"viability, T/C",[28],15.5%
same,"viability, T/C",[29],15.8%
same,"viability, T/C",[30],86.3%
same,"viability, T/C",[31],72.8%
same,"viability, T/C",[32],79.9%
same,"viability, T/C",[33],52.2%
same,"viability, T/C",[34],16.3%
same,"viability, T/C",[35],13.3%
CCc1c2c(nc3ccc(O)cc13)-c1cc3c(c(=O)n1C2)COC(=O)[C@]3(O)CC,"viability, T/C",compound 0.000949 µM,7.99% and 9.82%
same,"viability, T/C",compound 0.003 µM,9.25% and 10.8%
same,"viability, T/C",compound 0.00949 µM,6.79% and 6.81%
same,"viability, T/C",compound 0.03 µM,2.02% and 1.48%
same,"viability, T/C",compound 0.0949 µM,0.16% and 0.66%
same,"viability, T/C",compound 0.3 µM,0.2% and 0.27%
same,IC50,curve of compound,< 0.949 nM
Nc1ncn(C2CC(O)C(CO)O2)c(=O)n1 (configuration not stated),"viability, T/C",compound 0.00316 µM,98.2% and 98.1%
same,"viability, T/C",compound 0.01 µM,90.8% and 96.7%
same,"viability, T/C",compound 0.0316 µM,81% and 89.9%
same,"viability, T/C",compound 0.1 µM,75.9% and 69.5%
same,"viability, T/C",compound 0.316 µM,62.2% and 57.2%
same,"viability, T/C",compound 1 µM,48.6% and 46.9%
same,IC50,curve of compound,927 nM and 722 nM
